One series addresses T1, AR protein (Homo sapiens, UniProt P10275).
T1 construct: VCap is a human prostate cancer cell line purchased from ATCC; host or cells: VCaP human prostate cancer cells
T1 sequence (P10275 1-920): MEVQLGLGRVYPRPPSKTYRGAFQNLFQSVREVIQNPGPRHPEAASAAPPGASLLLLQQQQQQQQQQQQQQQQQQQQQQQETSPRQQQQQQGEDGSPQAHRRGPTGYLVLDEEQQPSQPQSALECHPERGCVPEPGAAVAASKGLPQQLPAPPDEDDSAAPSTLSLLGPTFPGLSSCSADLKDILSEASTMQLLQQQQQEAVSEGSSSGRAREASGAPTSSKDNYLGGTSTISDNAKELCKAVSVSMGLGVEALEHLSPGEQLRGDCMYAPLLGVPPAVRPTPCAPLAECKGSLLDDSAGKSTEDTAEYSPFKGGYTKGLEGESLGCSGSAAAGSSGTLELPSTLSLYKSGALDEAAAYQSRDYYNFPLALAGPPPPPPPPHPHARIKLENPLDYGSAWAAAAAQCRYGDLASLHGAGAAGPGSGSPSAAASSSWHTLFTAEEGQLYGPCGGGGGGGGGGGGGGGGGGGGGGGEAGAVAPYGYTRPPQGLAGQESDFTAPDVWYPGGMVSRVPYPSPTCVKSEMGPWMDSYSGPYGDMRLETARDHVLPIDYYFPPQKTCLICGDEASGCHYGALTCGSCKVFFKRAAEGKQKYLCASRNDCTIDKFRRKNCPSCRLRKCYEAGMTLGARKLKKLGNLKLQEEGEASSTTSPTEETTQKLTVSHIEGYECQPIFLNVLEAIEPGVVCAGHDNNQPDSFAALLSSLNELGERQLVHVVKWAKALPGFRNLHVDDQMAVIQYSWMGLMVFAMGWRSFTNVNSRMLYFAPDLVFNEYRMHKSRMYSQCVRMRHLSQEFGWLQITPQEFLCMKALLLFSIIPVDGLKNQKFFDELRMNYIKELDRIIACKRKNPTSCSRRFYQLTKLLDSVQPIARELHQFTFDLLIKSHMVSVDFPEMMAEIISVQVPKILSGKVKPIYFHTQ
Nature of the series: Detection of AR degradation in VCaP cells (automated western blot). Conditions: degradation of AR protein in VCaP cells, 24 hours incubation; read-out: DC50. It is filed as cell-based. In short, it runs like this:
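VCaP cells (5 × 10^5/well) were treated with compounds at various concentrations for 24 h at 37°C. Lysate AR level was quantified by automated capillary western blot, normalised to β-actin and expressed relative to solvent control. DC50 came from four-parameter nonlinear regression; degradation rate = 100 − AR%.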
(In general: In western blotting, separated proteins are transferred to a membrane and probed.)

The next series deals with T2, hERG potassium channel (Homo sapiens, UniProt Q12809).
T2 construct: expressed in transfected cells; host or cells: CHO cells stably expressing hERG
T2 sequence (Q12809 whole entry): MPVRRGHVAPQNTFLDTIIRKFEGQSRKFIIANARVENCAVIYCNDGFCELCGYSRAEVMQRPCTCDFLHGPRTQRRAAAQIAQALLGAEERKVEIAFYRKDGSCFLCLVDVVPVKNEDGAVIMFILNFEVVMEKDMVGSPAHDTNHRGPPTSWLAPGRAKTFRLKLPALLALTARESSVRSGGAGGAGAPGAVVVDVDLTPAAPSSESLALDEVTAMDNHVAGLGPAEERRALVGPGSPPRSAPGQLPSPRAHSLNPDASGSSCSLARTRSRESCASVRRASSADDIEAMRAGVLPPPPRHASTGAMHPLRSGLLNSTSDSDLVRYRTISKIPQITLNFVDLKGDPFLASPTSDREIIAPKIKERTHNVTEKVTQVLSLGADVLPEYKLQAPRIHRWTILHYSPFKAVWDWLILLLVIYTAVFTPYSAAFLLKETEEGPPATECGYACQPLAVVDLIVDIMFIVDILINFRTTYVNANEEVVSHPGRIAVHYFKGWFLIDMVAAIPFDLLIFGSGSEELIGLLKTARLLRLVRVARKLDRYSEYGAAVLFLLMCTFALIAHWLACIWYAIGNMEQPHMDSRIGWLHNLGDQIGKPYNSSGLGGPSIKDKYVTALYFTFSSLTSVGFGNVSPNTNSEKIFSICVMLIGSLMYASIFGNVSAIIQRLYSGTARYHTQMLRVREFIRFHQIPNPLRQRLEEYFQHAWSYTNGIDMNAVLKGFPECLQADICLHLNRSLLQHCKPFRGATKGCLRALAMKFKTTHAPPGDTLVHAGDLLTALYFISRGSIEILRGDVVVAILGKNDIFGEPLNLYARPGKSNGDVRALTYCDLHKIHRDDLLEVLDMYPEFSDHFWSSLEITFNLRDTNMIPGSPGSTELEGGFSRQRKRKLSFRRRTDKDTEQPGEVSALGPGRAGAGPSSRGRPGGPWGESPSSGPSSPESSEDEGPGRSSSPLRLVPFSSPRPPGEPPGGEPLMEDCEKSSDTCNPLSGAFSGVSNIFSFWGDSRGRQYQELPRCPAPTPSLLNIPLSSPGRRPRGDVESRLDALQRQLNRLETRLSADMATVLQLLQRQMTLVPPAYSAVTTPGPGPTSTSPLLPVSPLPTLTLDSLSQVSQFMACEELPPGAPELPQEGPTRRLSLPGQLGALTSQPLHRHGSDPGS
The series can be described thus: hERG potassium ion channel test (manual patch-clamp, CHO cells). It is filed as cell-based. As to conditions: chinese hamster; inhibitory activity against hERG potassium channel current, CHO cells, whole cell patch-clamp; read-out: IC50. On the technique in general: The hERG channel carries a current that helps repolarise heart muscle cells.

A word on the DC50: it is the concentration giving 50% degradation. What is called IC50 is the point on the concentration scale where inhibition reaches its midpoint.

Molecules are shown by their SMILES. Some results are limits rather than exact numbers.

As to `CC1(C)[C@H](NC(=O)c2ccc(N3CCC(CN4CCN5c6cc(F)c(C7CCC(=O)NC7=O)cc6CC[C@H]5C4)CC3)cc2)C(C)(C)[C@H]1Oc1ccc(C#N)c2ncccc12` (some centres unmarked) [Compound 31], the DC50 on AR protein was below 0.1 µM. Further, on hERG potassium channel, the concentration for half-maximal inhibition (IC50) was above 40 µM.
